Results as given in the supplement of paper PMC11451515.

Tested on: SEM cells
Assay: cell viability relative to DMSO control; higher = less cytotoxic
Conditions: 48 h
Procedure, shortened: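 Viability, reported as a per-plate percentage of DMSO wells with cell-free wells as background, came from CellTiter-Glo One luminescence. Reading took place after 48 h at 37°C. Before that, NOMO1 or SEM (500 cells/well) or P12-Ichikawa (1000 cells/well) leukemia cells, adapted for at least four passages in each medium, were seeded in 1536-well plates (5 μl) and pin-dosed with library compounds in DMSO, 47 μM to 0.79 nM over 11 threefold points.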

[1] = HPLM + 10% dialyzed FBS, 0.000781 µM
[2] = HPLM + 10% dialyzed FBS, 0.00234 µM
[3] = HPLM + 10% dialyzed FBS, 0.00702 µM
[4] = HPLM + 10% dialyzed FBS, 0.0211 µM
[5] = HPLM + 10% dialyzed FBS, 0.0632 µM
[6] = HPLM + 10% dialyzed FBS, 0.19 µM
[7] = HPLM + 10% dialyzed FBS, 0.569 µM
[8] = HPLM + 10% dialyzed FBS, 1.71 µM
[9] = HPLM + 10% dialyzed FBS, 5.12 µM
[10] = HPLM + 10% dialyzed FBS, 15.4 µM
[11] = HPLM + 10% dialyzed FBS, 46.1 µM
[12] = RPMI 5 mM glucose + 10% FBS, 0.000781 µM
[13] = RPMI 5 mM glucose + 10% FBS, 0.00234 µM
[14] = RPMI 5 mM glucose + 10% FBS, 0.00702 µM
[15] = RPMI 5 mM glucose + 10% FBS, 0.0211 µM
[16] = RPMI 5 mM glucose + 10% FBS, 0.0632 µM
[17] = RPMI 5 mM glucose + 10% FBS, 0.19 µM
[18] = RPMI 5 mM glucose + 10% FBS, 0.569 µM
[19] = RPMI 5 mM glucose + 10% FBS, 1.71 µM
[20] = RPMI 5 mM glucose + 10% FBS, 5.12 µM
[21] = RPMI 5 mM glucose + 10% FBS, 15.4 µM
[22] = RPMI 5 mM glucose + 10% FBS, 46.1 µM
[23] = RPMI 5 mM glucose + 10% dialyzed FBS, 0.000781 µM
[24] = RPMI 5 mM glucose + 10% dialyzed FBS, 0.00234 µM
[25] = RPMI 5 mM glucose + 10% dialyzed FBS, 0.00702 µM
[26] = RPMI 5 mM glucose + 10% dialyzed FBS, 0.0211 µM
[27] = RPMI 5 mM glucose + 10% dialyzed FBS, 0.0632 µM
[28] = RPMI 5 mM glucose + 10% dialyzed FBS, 0.19 µM
[29] = RPMI 5 mM glucose + 10% dialyzed FBS, 0.569 µM
[30] = RPMI 5 mM glucose + 10% dialyzed FBS, 1.71 µM
[31] = RPMI 5 mM glucose + 10% dialyzed FBS, 5.12 µM
[32] = RPMI 5 mM glucose + 10% dialyzed FBS, 15.4 µM
[33] = RPMI 5 mM glucose + 10% dialyzed FBS, 46.1 µM

SMILES	cell viability [1]	cell viability [2]	cell viability [3]	cell viability [4]	cell viability [5]	cell viability [6]	cell viability [7]	cell viability [8]	cell viability [9]	cell viability [10]	cell viability [11]	cell viability [12]	cell viability [13]	cell viability [14]	cell viability [15]	cell viability [16]	cell viability [17]	cell viability [18]	cell viability [19]	cell viability [20]	cell viability [21]	cell viability [22]	cell viability [23]	cell viability [24]	cell viability [25]	cell viability [26]	cell viability [27]	cell viability [28]	cell viability [29]	cell viability [30]	cell viability [31]	cell viability [32]	cell viability [33]
CN1[C@@H]2CC(OC(=O)[C@@H](CO)c3ccccc3)C[C@H]1[C@H]1O[C@H]12 (stereo partly specified)	85.3%	88.7%	91%	84.7%	93.5%	106%	102%	110%	108%	102%	98%	80.9%	82.9%	80.7%	85%	90.6%	113%	96.2%	106%	89.2%	97%	97.9%	90.2%	88.8%	105%	86.3%	96.3%	105%	117%	114%	101%	113%	108%
COC(=O)Nc1nc2cc(C(=O)c3cccs3)ccc2[nH]1	102%	71.5%	94.1%	48.1%	28.1%	30.4%	24.9%	28%	25.8%	28.9%	19.8%	95.6%	46.7%	88%	37%	15.3%	15.1%	17.5%	14.8%	13.9%	14.3%	14.2%	111%	69%	94.4%	51.8%	24.7%	25.5%	22.3%	27.2%	26%	26.6%	22.2%
CCc1cc(Nc2nccc(-c3c(-c4ccc(OC)c(C(=O)Nc5c(F)cccc5F)c4)nc4ccccn34)n2)c(OC)cc1N1CCC(N2CCN([S+](C)(=O)[O-])CC2)CC1	88.9%	84.9%	102%	93.2%	87.7%	84.8%	95.3%	89.1%	96.2%	82.6%	52.4%	88.4%	94.6%	102%	100%	107%	121%	105%	91.6%	91.9%	66.6%	23.5%	83.1%	78%	80.7%	101%	87.8%	79.9%	86%	80.6%	89.1%	65.9%	38.7%
O=C(NOCC(O)CO)c1cc(Br)c(F)c(F)c1Nc1ccc(I)cc1F (stereo unspecified)	66.2%	76.3%	73%	78.6%	77.2%	83%	80.4%	62.4%	46.3%	60.7%	44.1%	63.8%	92%	76.8%	90.1%	94.4%	80.3%	70.8%	69.3%	52.7%	45.7%	37%	73.3%	95.8%	67.4%	83.1%	81.6%	67.5%	54.1%	61.1%	39%	37.1%	42.1%
Cc1c(CN2CCN(C(=O)[C@H](C)O)CC2)sc2c(N3CCOCC3)nc(-c3cnc(N)nc3)nc12	98%	63.4%	78.2%	79%	70.5%	67.7%	55.4%	38.5%	35.8%	36.1%	31.3%	96.8%	70%	95.4%	80.9%	84.6%	80.1%	56.3%	34.3%	34.3%	36.8%	27.3%	90.4%	54.8%	87.4%	82.4%	67%	78.6%	48.2%	41.3%	36.6%	34.6%	30.5%
O=NN(CCCl)C(=O)NC1CCCCC1	84.7%	94.3%	94.3%	89.2%	91.5%	101%	111%	90.8%	89.9%	89.3%	86.7%	114%	117%	113%	103%	126%	93.7%	122%	121%	132%	109%	101%	81.3%	86.1%	87.5%	88.3%	89.3%	92.2%	98.9%	104%	101%	100%	70.8%
N=C(CCSCc1csc(N=C(N)N)n1)N[S+](N)(=O)[O-]	85.8%	82.3%	96.9%	82.6%	94.5%	99%	109%	98.5%	106%	96.1%	92.6%	89.9%	87.6%	103%	88%	91.8%	102%	99.4%	96.5%	100%	105%	92.2%	80.5%	80.4%	107%	82.2%	89%	93.6%	96.1%	103%	107%	92.6%	116%
